Values of other authors in patent US10350275B2, “Methods of cytotoxic gene therapy to treat tumors” (Advantagene, Inc., priority 2013, dated 2019).

Test system: tumors
Details: monotherapy; Senzer et al 2009

## Anti-CTLA-4: Immune checkpoint inhibitor antibody; Ipilimumab (anti-CTLA-4) approved for metastatic melanoma
  complete and partial responses, share of subjects: about 10.9%
